{"source": "patent US20260021147A1", "about": "“COMPOSITIONS AND METHODS FOR TREATING INFLAMMATORY DISEASE” (The Regents of the University of Michigan, priority 2022, published 2026)", "key": {"[1]": {"test_system": "allogeneic mice (B6D2F1 recipients of B6 donor cells)", "assay": "Murine GvHD model (allo-HSCT): survival and GvHD histology", "format": "in vivo", "details": "for severity of colonic GvHD: antibiotic in drinking water, colon collected day 20, vs control allogeneic mice", "protocol": "In a murine model with a mucin-deficient mutate strain of BT, piperacillin/tazobactam was given at a concentration of 3.2 g/L in combination with vancomycin and metronidazole dosed 1.5 mg daily by oral gavage from days −16 to −12 relative to transplant.\nD-(+)-xylose (X3877, Sigma-Aldrich) or D-(+)-glucose (G8270, Sigma-Aldrich) was dissolved in phosphate buffer pH 8.0 with meropenem or in water without meropenem and given at a concentration of 0.5% from days 13 to 28 after allo-HSCT.\nMice were transplanted as previously described (Hayase et al., 2017).\n(§1) Pathology scores were quantified by a blinded pathologist. […] Sections were imaged using an Aperio AT2."}, "colonic mucus layer": {"test_system": "colonic mucus layer", "assay": "Colonic mucus thickness by PAS staining", "format": "in vivo, mice", "details": "meropenem-treated allogeneic mice (FIG. 6, FIG. 12 titles)", "text": "as §1"}, "[2]": {"test_system": "BT (MDA-JAX BT001) PUL transcripts", "assay": "RNA sequencing of stool: PUL expression in BT", "format": "in vivo, Bacteroides thetaiotaomicron", "details": "supplementation in meropenem-treated allogeneic mice", "protocol": "Approximately 30 mg of stool was freshly collected in 700 μL of ice cold Qiazol containing 200 μL of 0.1 mm diameter Zirconia Silica beads (11079101z, BioSpec). Samples were bead beaten twice for 2 min with a 30 second interval recovery. Samples were then centrifuged at 12,000 g for 1 min and the supernatant was collected for RNA isolation using the RNeasy mini kit (74104, Qiagen). RNA was treated on column with DNase I (79254, Qiagen) to eliminate contaminating genomic DNA. RNA quantity and quality was determined using an Agilent 4200 TapeStation system (Agilent). 250 ng of total RNA from mouse stools was used to construct libraries using the Nugen Ovation Complete Prokaryotic RNA-Seq Systems (NuGen) or the Universal Prokaryotic RNA-Seq Library Preparation Kit (9367-32, Tecan) with Unique Dual Indexes (S02480-FG, Tecan), following the manufacturer's protocol. The cDNA libraries were sequenced on the Illumina MiSeq or NovaSeq 6000 system to produce either 1×300 bp single-end reads or 2×150 bp paired-end reads. […] The total reads of mouse stool samples were 950923±113406 (mean ±standard deviation) in FIG. 6A and 137623366±38865363 in FIG. 6G-H and 12G. […] Aligned mRNA expression changes were calculated using the Mann-Whitney U test in R software version 3.6.0 via RStudio version 1.2.1335. […]"}, "[3]": {"test_system": "mouse- and human-derived BT", "assay": "Bacterial culture of BT with or without monosaccharide", "format": "cell-based, Bacteroides thetaiotaomicron", "details": "carbohydrate-poor media, in vitro", "protocol": "Mouse-derived BT (MDA-JAX BT001), Enterococcus faecalis (MDA-JAX EF001) and Clostridium disporicum (MDA-JAX CD001), Clostridium saudiense (MDA-JAX CS001), and Lachnospiraceae unclassified (MDA-JAX LS001) were isolated and cultured from mouse stool samples suspended in 1 ml of chilled 20% anaerobic glycerol in a Whitley anaerobic chamber (10% H2, 5% CO2 and 85% N2). Human-derived BT (ATCC 29148) was purchased from ATCC. Bacterial number was quantified using a Nexcelom Cellometer cell counter with SYTO™ BC dye and propidium iodide. For measuring MICs against meropenem, bacteria were cultured on BYE plates including 5% sterilized rumen fluid (Fisher Scientific) with MIC test strips (Liofilchem™ MTS™ Meropenem [MRP] 0.016-256 μg/mL, Fisher Scientific). Bacterial growth experiments were performed in a bacterial liquid media, BYEM10, composed of a hybrid of BHI and M10 supplemented with yeast extract (Table 4). Bacteria were cultured up to 48 hours at a starting concentration of 1×10^6 bacteria/ml in BYEM10 broth (pH 7.2) with and without 5 mg/ml of porcine gastric mucin (M1778, Sigma-Aldrich) with or without 0.5 mg/ml of D-(+)-xylose (X3877), D-(+)-mannose (M8574, Sigma-Aldrich) or D-(+)-glucose (G8270). Optical densities (OD600 nm) of bacterial cultures were measured with a BioTek EPOCH 2 plate reader."}, "intestinal microbiota": {"test_system": "intestinal microbiota", "assay": "16S rRNA sequencing of fecal and mucosal microbiome in mice", "format": "in vivo", "protocol": "Fecal samples which were collected from patients and mice and colonic mucosal samples, which were collected from mice were weighed before DNA isolation. […] The quality and quantity of the barcoded amplicons were assessed on an Agilent 4200 TapeStation system (Agilent) and Qubit Fluorometer (Thermo Fisher Scientific), and libraries were prepared after pooling at equimolar ratios. The final libraries were purified using QIAquick gel extraction kit (28706X4, Qiagen) and sequenced with a 2×250 base pair paired-end protocol on the Illumina MiSeq platform.\nFor differential abundance analysis, abundances of sequences belonging to taxonomical groups were included for analysis using the Mann-Whitney U test and adjusted for multiple comparisons using the method of Benjamini-Hochberg. Paired samples were analyzed using the Wilcoxon signed rank test with adjustment for multiple comparisons."}, "[4]": {"assay": "Short chain fatty acids profiling of mouse feces by IC-MS", "format": "in vivo, mice", "details": "allogeneic mice, day 20", "protocol": "To determine the relative abundance of short chain fatty acids in mouse feces samples, extracts were prepared and analyzed by ultra-high resolution mass spectrometry (HRMS). Fecal pellets were homogenized with a Precellys Tissue Homogenizer. Metabolites were extracted using 1 mL ice-cold 0.1% Ammonium hydroxide in 80/20 (v/v) methanol/water. Extracts were centrifuged at 17,000 g for 5 min at 4° C., and supernatants were transferred to clean tubes, followed by evaporation to dryness under nitrogen. Dried extracts were reconstituted in deionized water, and 5 μL was injected for analysis by IC-MS. IC mobile phase A (MPA; weak) was water, and mobile phase B (MPB; strong) was water containing 100 mM KOH. A Thermo Scientific Dionex ICS-5000+ system included a Thermo IonPac AS11 column (4 μm particle size, 250×2 mm) with column compartment kept at 30° C. The autosampler tray was chilled to 4° C. The mobile phase flow rate was 360 μL/min, and the gradient elution program was: 0-5 min, 1% MPB; 5-25 min, 1-35% MPB; 25-39 min, 35-99% MPB; 39-49 min, 99% MPB; 49-50, 99-1% MPB. The total run time was 50 min. To assist the desolvation for better sensitivity, methanol was delivered by an external pump and combined with the eluent via a low dead volume mixing tee. Data were acquired using a Thermo Orbitrap Fusion Tribrid Mass Spectrometer under ESI negative ionization mode at a resolution of 240,000. […]"}}}
{"smiles": "O=C[C@H](O)[C@@H](O)[C@H](O)CO", "note": "[xylose, D-(+)-xylose]", "values": [{"measurement": "overall survival", "setting": "[1]; 0.5% xylose days 13 to 28, meropenem-treated allogeneic mice", "value": "significantly improved the survival"}, {"measurement": "mucolytic activity / mucus-degrading function of BT", "setting": "colonic mucus layer", "value": "suppressed"}, {"measurement": "expression of ORF GH2_PUL89_16", "setting": "[2]", "value": "significantly downregulated"}, {"measurement": "growth of mouse- and human-derived BT", "setting": "[3]", "value": "augmented"}]}
{"smiles": "CO/N=C(\\C(=O)N[C@@H]1C(=O)N2C(C(=O)[O-])=C(C[N+]3(C)CCCC3)CS[C@H]12)c1csc(N)n1", "note": "[cefepime]", "values": [{"measurement": "severity of colonic GvHD", "setting": "[1]", "value": "do not increase the severity of colonic GvHD"}, {"measurement": "abundances of BT", "setting": "intestinal microbiota; day 20, compared to meropenem-treated mice", "value": "significantly lower abundances of BT"}, {"measurement": "compositional differences between luminal and mucosal samples", "setting": "intestinal microbiota; treated allogeneic mice, PERMANOVA testing", "value": "loss of compositional differences"}, {"measurement": "fecal levels of SCFAs", "setting": "[4]", "value": "did not show substantially reduced fecal levels of SCFAs"}]}
{"smiles": "C[C@H]1COc2c(N3CCN(C)CC3)c(F)cc3c(=O)c(C(=O)O)cn1c23", "note": "[levofloxacin]", "values": [{"measurement": "severity of colonic GvHD", "setting": "[1]", "value": "do not increase the severity of colonic GvHD"}]}
